From publication PMC10087438 (The Febs Journal, 2022)

What was measured:
[1] = target: T1, PaNADK (NAD kinase from Pseudomonas aeruginosa) (Pseudomonas aeruginosa, UniProt Q9HZC0); assay: X-ray crystal structure, […] Å; format: binding
T1 sequence (Q9HZC0 1-295): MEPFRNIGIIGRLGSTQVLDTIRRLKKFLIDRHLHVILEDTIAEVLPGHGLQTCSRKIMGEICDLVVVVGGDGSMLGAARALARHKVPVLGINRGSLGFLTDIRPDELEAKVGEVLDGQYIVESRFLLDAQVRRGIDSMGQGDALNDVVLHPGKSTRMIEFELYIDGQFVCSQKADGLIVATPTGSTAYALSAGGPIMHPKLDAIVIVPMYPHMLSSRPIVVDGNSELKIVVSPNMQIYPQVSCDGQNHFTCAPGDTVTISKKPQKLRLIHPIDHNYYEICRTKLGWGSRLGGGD

[2] = target: T2, LmNADK (NADK 1 from Listeria monocytogenes) (Listeria monocytogenes, UniProt Q8Y8D7); assay: enzyme inhibition; format: biochemical
T2 sequence (Q8Y8D7 1-264): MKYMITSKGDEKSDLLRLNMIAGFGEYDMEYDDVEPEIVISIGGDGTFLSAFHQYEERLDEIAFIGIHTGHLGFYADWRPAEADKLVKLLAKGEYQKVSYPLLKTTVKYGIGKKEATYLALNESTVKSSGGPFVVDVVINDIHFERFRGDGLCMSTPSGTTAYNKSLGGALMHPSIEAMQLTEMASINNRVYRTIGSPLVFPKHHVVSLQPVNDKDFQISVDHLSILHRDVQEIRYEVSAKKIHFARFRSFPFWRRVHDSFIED

[3] = target: T1, PaNADK (NAD kinase from Pseudomonas aeruginosa); assay: G6PDH-coupled enzyme assay, global competitive inhibition fit; format: biochemical
purified protein [4] = substrate: NC(=O)c1ccc[n+]([C@@H]2O[C@H](COP(=O)([O-])OP(=O)(O)OC[C@H]3O[C@@H](n4cnc5c(N)ncnc54)[C@H](O)[C@@H]3O)[C@@H](O)[C@H]2O)c1; assay: purified protein; conditions: MgATP
purified protein [5] = substrate: Nc1ncnc2c1ncn2[C@@H]1O[C@H](COP(=O)(O)OP(=O)(O)OP(=O)(O)O)[C@@H](O)[C@H]1O; assay: purified protein; conditions: Mg2+

NC(=O)c1ccc[n+]([C@@H]2O[C@H](COP(=O)([O-])OP(=O)(O)OC[C@H]3O[C@@H](n4cnc5c(N)ncnc54)[C@H](OP(=O)(O)O)[C@@H]3O)[C@@H](O)[C@H]2O)c1 [NADP^+]
X-ray crystal structure, 2.3 Å [1]: we determined the atomic structure of the protein bound to NADP^+ by X‐ray crystallography

NC(=O)c1cccc([C@@H]2O[C@H](COCC#Cc3nc4c(N)ncnc4n3[C@@H]3O[C@H](CO)[C@@H](O)[C@H]3O)[C@@H](O)[C@H]2O)c1 [compound 1, 5‐O ‐[3‐(adenosin‐8‐yl)prop‐2‐yn‐1‐yl]‐1‐deoxy‐1‐(3‐carbamoylphenyl)‐β‐D‐ribofuranose]
Ki [2]: 3.2 ± 0.4 µM
Ki [3]: 4.6 ± 0.3 µM

B1: PaNADK (NAD kinase from Pseudomonas aeruginosa) (Pseudomonas aeruginosa PAO1) (protein)
chain: T1 sequence (Q9HZC0 1-295)
Km (purified protein [4]): 150 µM
Km (purified protein [5]): 2000 µM
